ChEMBL document CHEMBL2169838, “Synthesis and biological evaluation of the 1-arylpyrazole class of σ(1) receptor antagonists: identification of 4-{2-[5-methyl-1-(naphthalen-2-yl)-1H-pyrazol-3-yloxy]ethyl}morpholine (S1RA, E-52862)” (J Med Chem, 2012)
In brackets after ≈: the same amount, converted by molar mass.

Legend:
[1] = Binding affinity to rat sigma 2 receptor
[2] = tested on: Mus musculus; test: Antiallodynic activity in ip dosed CD1 mouse partial sciatic nerve ligation model assessed as inhibition of mechanical allodynia administered 30 mins by von Frey test; type: functional
[3] = biological target: T1, Cytochrome P450 2B6 (Homo sapiens, UniProt P20813); test: Inhibition of CYP2B6 in human liver microsomes; type: ADME, Microsome
T1 sequence (P20813 whole entry): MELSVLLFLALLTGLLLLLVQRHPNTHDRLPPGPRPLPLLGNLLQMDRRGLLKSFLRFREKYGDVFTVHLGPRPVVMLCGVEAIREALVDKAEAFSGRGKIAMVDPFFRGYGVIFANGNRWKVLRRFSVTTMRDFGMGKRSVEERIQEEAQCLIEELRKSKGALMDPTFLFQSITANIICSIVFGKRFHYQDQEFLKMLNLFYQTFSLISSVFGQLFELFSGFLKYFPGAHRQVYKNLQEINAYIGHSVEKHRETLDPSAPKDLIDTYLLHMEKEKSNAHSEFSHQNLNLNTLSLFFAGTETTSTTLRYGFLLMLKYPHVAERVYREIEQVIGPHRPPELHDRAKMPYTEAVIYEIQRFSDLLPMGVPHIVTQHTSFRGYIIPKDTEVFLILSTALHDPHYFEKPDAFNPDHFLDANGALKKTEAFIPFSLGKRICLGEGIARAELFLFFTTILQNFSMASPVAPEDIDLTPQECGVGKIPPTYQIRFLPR

[4] = biological target: T2, Cytochrome P450 2C19 (Homo sapiens, UniProt P33261); test: Inhibition of human recombinant CYP2C19; type: ADME
[5] = tested on: Mus musculus; test: Cmax in CD1 mouse at 10 mg/kg, po at 0.5 hrs; type: ADME, organism-based; design: dose 10 mg/kg, route oral; details: in vivo
[6] = biological target: T3, Cytochrome P450 2D6 (Homo sapiens, UniProt P10635); test: Inhibition of CYP2D6 in human liver microsomes; type: ADME, Microsome
[7] = biological target: T1, Cytochrome P450 2B6; test: Inhibition of human recombinant CYP2B6; type: ADME
[8] = biological target: T4, 5-hydroxytryptamine receptor 2B (Homo sapiens, UniProt P41595); test: Antagonist activity at human 5HT2B receptor; type: functional
[9] = tested on: Mus musculus; test: Inhibition of capsaicin-induced mechanical hypersensitivity in CD1 mouse assessed as paw withdrawal latency at 32 mg/kg, ip administered 15 mins prior to capsaicin challenge measured 30 mins post capsaicin challenge; type: functional; details: route intraperitoneal
[10] = biological target: T3, Cytochrome P450 2D6; test: Inhibition of human recombinant CYP2D6; type: ADME
[11] = biological target: T2, Cytochrome P450 2C19; test: Inhibition of CYP2C19 in human liver microsomes; type: ADME, Microsome
[12] = biological target: T4, 5-hydroxytryptamine receptor 2B; test: Binding affinity to human 5HT2B receptor
[13] = tested on: Mus musculus; test: Analgesic activity in CD1 mouse assessed as inhibition of capsaicin-induced mechanical hypersensitivity at 16 mg/kg, ip administered 15 mins prior to capsaicin challenge measured 30 mins post capsaicin challenge; type: functional; details: route intraperitoneal
[14] = biological target: T5, Cytochrome P450 2C9 (Homo sapiens, UniProt P11712); test: Inhibition of human recombinant CYP2C9; type: ADME
[15] = tested on: Mus musculus; test: Neurotoxicity in CD1 mouse assessed as motor impairment at 32 to 64 mg/kg, ip measured after 30 to 180 mins by rotarod test; type: toxicity, organism-based; design: route intraperitoneal; details: in vivo
[16] = tested on: Mus musculus; test: Antihyperalgesic activity in ip dosed CD1 mouse partial sciatic nerve ligation model assessed as inhibition of thermal hyperalgesia administered 45 mins by plantar test; type: functional
[17] = biological target: T6, Cytochrome P450 1A2 (Homo sapiens, UniProt P05177); test: Inhibition of human recombinant CYP1A2; type: ADME
T6 sequence (P05177 whole entry): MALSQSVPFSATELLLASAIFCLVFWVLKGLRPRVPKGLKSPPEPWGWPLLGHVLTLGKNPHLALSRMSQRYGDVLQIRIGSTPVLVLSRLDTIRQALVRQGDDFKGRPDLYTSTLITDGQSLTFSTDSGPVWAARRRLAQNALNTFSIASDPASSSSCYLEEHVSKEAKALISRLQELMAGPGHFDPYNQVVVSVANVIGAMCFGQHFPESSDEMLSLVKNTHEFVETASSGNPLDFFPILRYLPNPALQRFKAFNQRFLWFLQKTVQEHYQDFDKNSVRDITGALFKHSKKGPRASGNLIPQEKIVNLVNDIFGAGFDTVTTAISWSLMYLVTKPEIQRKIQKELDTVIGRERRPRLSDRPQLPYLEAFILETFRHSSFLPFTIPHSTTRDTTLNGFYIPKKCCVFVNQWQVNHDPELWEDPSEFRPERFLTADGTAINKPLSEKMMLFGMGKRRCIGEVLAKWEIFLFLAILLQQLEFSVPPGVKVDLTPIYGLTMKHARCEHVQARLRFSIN

[18] = biological target: T7, Cytochrome P450 2C8 (Homo sapiens, UniProt P10632); test: Inhibition of CYP2C8 in human liver microsomes; type: ADME, Microsome
T7 sequence (P10632 whole entry): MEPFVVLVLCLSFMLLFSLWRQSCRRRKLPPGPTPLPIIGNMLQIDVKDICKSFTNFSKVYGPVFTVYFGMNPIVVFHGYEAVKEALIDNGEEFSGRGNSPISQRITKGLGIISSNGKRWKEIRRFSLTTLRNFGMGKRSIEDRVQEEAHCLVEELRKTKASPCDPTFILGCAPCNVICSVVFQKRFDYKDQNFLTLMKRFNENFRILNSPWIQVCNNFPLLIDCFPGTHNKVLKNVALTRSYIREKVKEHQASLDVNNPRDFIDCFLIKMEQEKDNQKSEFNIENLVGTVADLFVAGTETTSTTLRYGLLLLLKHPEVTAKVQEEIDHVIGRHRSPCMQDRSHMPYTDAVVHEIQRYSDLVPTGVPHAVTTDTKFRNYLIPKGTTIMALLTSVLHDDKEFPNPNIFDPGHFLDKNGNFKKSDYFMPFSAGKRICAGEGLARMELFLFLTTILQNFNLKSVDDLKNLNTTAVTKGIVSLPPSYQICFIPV

[19] = Apparent permeability across human Caco2 cells at 10 uM after 2 hrs; type: ADME, cell-based; details: Caco-2
[20] = biological target: T8, Cytochrome P450 2E1 (Homo sapiens, UniProt P05181); test: Inhibition of human recombinant CYP2E1; type: ADME
[21] = biological target: T5, Cytochrome P450 2C9; test: Inhibition of CYP2C9 in human liver microsomes; type: ADME, Microsome
[22] = Dissociation constant, pKa of the compound; type: physicochemical
[23] = Partition coefficient, log P of the compound by PH-metrivc technique; type: physicochemical; details: octanol/water
[24] = Intrinsic clearance in human liver microsomes assessed as per mg of protein at 10 uM; type: ADME, Microsome; details: read-out: CLH
[25] = AUC in CD1 mouse at 10 mg/kg, po; type: ADME, organism-based; design: dose 10 mg/kg, route oral; details: plasma
[26] = biological target: T6, Cytochrome P450 1A2; test: Inhibition of CYP1A2 in human liver microsomes; type: ADME, Microsome
[27] = Thermodynamic solubility of the compound in phosphate buffer at pH 7.4; type: physicochemical; details: read-out: Therm_solubility
[28] = biological target: T8, Cytochrome P450 2E1; test: Inhibition of CYP2E1 in human liver microsomes; type: ADME, Microsome
[29] = Lipophilicity, log D of the compound by PH-metrivc technique; type: physicochemical; details: octanol/water
[30] = biological target: T7, Cytochrome P450 2C8; test: Inhibition of human recombinant CYP2C8; type: ADME
[31] = Displacement of [3H]di-o-tolylguanidine from sigma 2 receptor in guinea pig brain membranes after 120 mins by scintillation counter; type: cell membranes, Cavia porcellus, Membrane

T3 sequence (P10635 whole entry): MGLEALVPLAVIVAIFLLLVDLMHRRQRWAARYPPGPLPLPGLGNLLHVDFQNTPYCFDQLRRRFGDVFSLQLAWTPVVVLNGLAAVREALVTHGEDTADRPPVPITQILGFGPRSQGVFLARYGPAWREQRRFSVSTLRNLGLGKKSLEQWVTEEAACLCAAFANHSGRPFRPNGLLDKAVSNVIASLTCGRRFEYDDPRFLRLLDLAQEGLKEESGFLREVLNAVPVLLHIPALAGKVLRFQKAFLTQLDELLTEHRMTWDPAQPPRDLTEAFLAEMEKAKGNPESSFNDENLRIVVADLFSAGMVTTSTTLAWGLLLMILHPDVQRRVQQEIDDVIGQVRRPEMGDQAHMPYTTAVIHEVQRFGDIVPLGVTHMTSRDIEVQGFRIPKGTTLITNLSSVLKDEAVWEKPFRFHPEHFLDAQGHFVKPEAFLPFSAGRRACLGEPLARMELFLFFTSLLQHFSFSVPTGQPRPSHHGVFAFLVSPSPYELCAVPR
T2 sequence (P33261 whole entry): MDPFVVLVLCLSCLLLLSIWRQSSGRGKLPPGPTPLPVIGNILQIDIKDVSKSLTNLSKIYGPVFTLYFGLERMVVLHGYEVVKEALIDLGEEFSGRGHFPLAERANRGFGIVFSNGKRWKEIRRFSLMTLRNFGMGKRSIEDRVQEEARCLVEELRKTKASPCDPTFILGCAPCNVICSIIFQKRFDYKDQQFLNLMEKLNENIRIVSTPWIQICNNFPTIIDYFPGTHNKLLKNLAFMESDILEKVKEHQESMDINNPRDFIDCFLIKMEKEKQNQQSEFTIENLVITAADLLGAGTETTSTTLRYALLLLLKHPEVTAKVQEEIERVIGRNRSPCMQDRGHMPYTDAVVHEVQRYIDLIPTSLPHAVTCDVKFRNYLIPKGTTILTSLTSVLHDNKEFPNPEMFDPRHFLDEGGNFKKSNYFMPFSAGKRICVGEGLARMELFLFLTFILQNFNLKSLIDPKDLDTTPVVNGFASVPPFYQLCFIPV
T5 sequence (P11712 whole entry): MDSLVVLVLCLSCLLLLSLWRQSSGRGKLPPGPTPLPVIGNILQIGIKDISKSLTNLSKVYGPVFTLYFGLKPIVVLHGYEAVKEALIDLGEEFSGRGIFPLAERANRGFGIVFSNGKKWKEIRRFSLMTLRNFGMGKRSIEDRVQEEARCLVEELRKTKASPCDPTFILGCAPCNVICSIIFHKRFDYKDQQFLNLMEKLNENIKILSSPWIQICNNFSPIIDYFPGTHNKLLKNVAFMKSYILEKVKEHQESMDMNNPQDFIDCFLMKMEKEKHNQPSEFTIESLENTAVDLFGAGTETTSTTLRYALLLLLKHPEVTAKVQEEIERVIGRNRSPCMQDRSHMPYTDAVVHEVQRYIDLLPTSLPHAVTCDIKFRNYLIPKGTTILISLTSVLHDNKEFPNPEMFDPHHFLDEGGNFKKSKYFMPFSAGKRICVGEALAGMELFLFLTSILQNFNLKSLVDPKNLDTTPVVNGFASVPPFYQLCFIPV
T8 sequence (P05181 whole entry): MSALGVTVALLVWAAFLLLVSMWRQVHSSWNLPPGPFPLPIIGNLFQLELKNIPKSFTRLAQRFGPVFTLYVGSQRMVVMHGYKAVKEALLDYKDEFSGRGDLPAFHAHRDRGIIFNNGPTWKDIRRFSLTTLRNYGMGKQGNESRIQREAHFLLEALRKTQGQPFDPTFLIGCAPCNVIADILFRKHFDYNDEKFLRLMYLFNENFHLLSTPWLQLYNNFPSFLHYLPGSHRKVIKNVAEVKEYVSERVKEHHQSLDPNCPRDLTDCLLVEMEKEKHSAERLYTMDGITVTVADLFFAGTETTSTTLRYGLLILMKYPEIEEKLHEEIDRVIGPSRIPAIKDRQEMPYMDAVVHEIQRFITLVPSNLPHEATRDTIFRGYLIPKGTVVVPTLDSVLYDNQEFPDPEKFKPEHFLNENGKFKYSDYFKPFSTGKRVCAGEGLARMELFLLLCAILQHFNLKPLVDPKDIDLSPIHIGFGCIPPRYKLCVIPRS
T4 sequence (P41595 whole entry): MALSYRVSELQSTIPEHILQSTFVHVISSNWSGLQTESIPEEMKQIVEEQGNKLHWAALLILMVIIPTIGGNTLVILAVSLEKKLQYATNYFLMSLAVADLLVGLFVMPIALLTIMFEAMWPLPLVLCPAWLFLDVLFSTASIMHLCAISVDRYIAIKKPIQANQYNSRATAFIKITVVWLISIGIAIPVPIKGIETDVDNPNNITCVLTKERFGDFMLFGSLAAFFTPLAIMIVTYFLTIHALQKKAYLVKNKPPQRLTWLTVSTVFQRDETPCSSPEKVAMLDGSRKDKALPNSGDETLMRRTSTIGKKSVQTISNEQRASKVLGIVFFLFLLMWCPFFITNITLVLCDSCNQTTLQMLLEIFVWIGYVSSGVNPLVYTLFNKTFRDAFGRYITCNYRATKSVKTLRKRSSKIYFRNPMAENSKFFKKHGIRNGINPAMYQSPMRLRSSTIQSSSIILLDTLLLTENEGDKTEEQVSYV

Cc1cc(OCCN2CCOCC2)nn1-c1ccc2ccccc2c1
Ki [1]: 9.3 µM | inhibition [2]: Dose-dependent effect | ED50 ([2]; 0.5 h): 23.4 mg/kg | IC50 [3]: > 10 µM | IC50 [4]: > 10 µM | Cmax [5]: 62 ng/mL | IC50 [6]: > 10 µM | IC50 [7]: > 10 µM | IC50 [8]: 4.7 µM | inhibition in vivo at 32 mg/kg [9]: 62% | IC50 [10]: > 10 µM | IC50 [11]: > 10 µM | Ki [12]: 0.328 µM | inhibition in vivo at 16 mg/kg [13]: 43% | IC50 [14]: > 10 µM | Activity [15]: Non-toxic | inhibition [16]: Dose-dependent effect | ED50 ([16]; 0.75 h): 18.8 mg/kg | IC50 [17]: > 10 µM | IC50 [18]: > 10 µM | Papp at 2 h, 10 µM [19]: 37 ×10⁻⁶ cm/s | IC50 [20]: > 10 µM | IC50 [21]: > 10 µM | pKa [22]: 6.5 | logP [23]: 3.5 | microsomal CLint at 10 µM [24]: 3 µL/min/mg | AUC [25]: 958 ng·h/mL | IC50 [26]: > 10 µM | solubility thermodynamic [27]: 200 µg/mL (≈ 593 µM) | IC50 [28]: > 10 µM | logD [29]: 3.4 | IC50 [30]: > 10 µM | Ki [31]: > 1 µM
